Data reported in US20100081622A1, “Reduction of parathyroid hormone levels” (Sanos Bioscience A/S, priority 2008, published 2010).

Assays:
serum PTH = conditions: tHPT patients, after 10 weeks of treatment; cited from earlier work
[1] = rats; cited from earlier work
plasma PTH [2] = test: Plasma PTH after morning administration of GLP-2 in fasting subjects (Example 1); assay type: in vivo, human; conditions: postmenopausal women, one dose of 100, 200, 400 or 800 μg at 9 am, followed 8 hrs, FIG. 1
Protocol: The study was a randomized, block-stratified, placebo-controlled, parallel study. A total of 60 subjects of postmenopausal women were included and allocated to one of five groups each including 12 subjects receiving one dose of 100 μg, 200 μg, 400 μg, 800 μg GLP-2, or placebo.
On the day of treatment with the study medication, the subjects met at the study site after an overnight fast. The study medication was administered at 9 am (0 hrs) and the subjects remained fasting for another 8 hrs, thus at 5 pm the fasting period ended.

plasma PTH [3] = test: Plasma PTH at Day 1 and Day 120 after daily bedtime administration for 120 days (Example 3); assay type: in vivo, human; conditions: postmenopausal women with osteopenia; daily 0.4, 1.6 or 3.2 mg subcutaneous at bedtime for 120 days plus calcium and vitamin D
Protocol: The study was a randomised, double-blinded, placebo-controlled, parallel group and dose-ranging study in 160 postmenopausal women with osteopenia (BMD T-score, −2.5≦T≦−1.0) at one or more of the regions: the lumbar spine, femoral neck or total hip. Forty (40) subjects were randomised to each treatment group to receive treatment with daily doses of 0.4 mg, 1.6 mg or 3.2 mg of GLP-2 plus calcium (800-1000 mg/day) and vitamin D (400-800 IU/day), or placebo plus calcium (800-1000 mg/day) and vitamin D (400-800 IU/day) for 120 days.
The treatment involved a daily injection of the study medication at bedtime (10:00 pm±1 hour) for 120 consecutive days.
Pharmacokinetic/dynamic sampling during treatment Day 1 and 120 included blood and urine samples collected at the time points: −1 hour, 0 min, 1 hour, 2 hours, 3 hours, 6 hours and 10 hours in connection with the injection of the study medication for the assessment of efficacy parameters and pharmacokinetic/dynamic parameters of subcutaneous injections of GLP-2.

plasma PTH [4] = test: Plasma PTH after bedtime administration of GLP-2 in non-fasting subjects (Example 2); assay type: in vivo, human; conditions: postmenopausal women, 2x800 μg 3 hrs apart versus 1600 μg once, at bedtime, FIG. 2
Protocol: The study was a randomized, block-stratified, placebo-controlled, parallel study. A total of 44 postmenopausal women were included and randomly assigned to treatment with either 1600 μg GLP-2 (n=14), 800 μg GLP-2 twice (administered 3 hrs apart) (n=15), or placebo, i.e. saline (n=15). All subjects received 2 injections one at 10 pm […] and one 3 hrs later at 1 am […]. Thus, the placebo group was given two injections of saline and the 2×800 μg group two injections of 800 μg GLP-2, while the 1600 μg group received one injection of 1600 μg GLP-2 and one injection of saline.
On the day of treatment with the study medication, blood samples for efficacy measurement was taken from 10 pm every hour until 8 am.

## C[C@@H](NCCCc1cccc(C(F)(F)F)c1)c1cccc2ccccc12 [Cinacalcet]
Serum PTH
  reduction in serum PTH: 21.8%

## C=C1/C(=C\C=C2/CCC[C@]3(C)[C@@H]([C@H](C)CCCC(C)(C)O)CC[C@@H]23)C[C@@H](O)C[C@@H]1O [calcitriol]
[1]
  aortic calcification: moderate to marked aortic calcification

## His-Ala-Asp-Gly-Ser-Phe-Ser-Asp-Glu-Met-Asn-Thr-Ile-Leu-Asp-Asn-Leu-Ala-Ala-Arg-Asp-Phe-Ile-Asn-Trp-Leu-Ile-Gln-Thr-Lys-Ile-Thr-Asp-Arg (HADGSFSDEMNTILDNLAARDFINWLIQTKITDR; printed: His-Ala-Asp-Gly-Ser-Phe-Ser-Asp-Glu-Met-Asn-Thr-Ile-Leu-Asp-Asn-Leu-Ala-Ala-Arg-Asp-Phe-Ile-Asn-Trp-Leu-Ile-Gln-Thr-Lys-Ile-Thr-Asp-Arg) [GLP-2]
Plasma PTH [2]
  plasma PTH level after GLP-2: dose dependent rapid decrease in PTH which gradually abates over an 8 hour period
Plasma PTH [3]
  effect on plasma PTH over the treatment period, Day 1 versus Day 120: remains consistent
Plasma PTH [4]
  plasma PTH, area difference between treatment and placebo curves: two injections of 800 μg produced a greater area difference between the treatment and placebo curves
